In US20010041716A1, “Compositions and methods for locally treating inflammatory diseases” (priority 1999, published 2001):
Converted amounts (≈) assume the structure as drawn. Where two headings read alike, the source gives them in different places. Marks after values point to notes of the source that are not given here.

How the values were obtained:
[1] = n-octanol / phosphate buffer (pH 6.4)
[2] = Method: Differential Thermal Analysis: The heat of fusion (ΔHf) and the entropy of fusion (ΔSf) of thalidomide and its N-alkyl analogs were determined with a Perkin-Elmer DSC7 Differential Scanning Calorimeter (DSC), which was calibrated with an indium standard.
Using this surmise, the solubility parameters for all the solutes were calculated. […] In each case the solutions are considered ideal at the peak of their parabolas.

[3] = for Lag time TL = SD / Permeability coefficient P ± SD × 10^−3: pH 6
Method: Skin Preparation and Permeation: The human cadaver skin used in the permeation studies was obtained from the Anatomical Donation Program at the University of Michigan. Vertical Franz diffusion cells with a 4 ml capacity receptor compartment and a 0.8 cm^2 diffusion area were used in the permeation studies. The epidermal layer of the skin was mounted carefully onto the lower half of the cells of the difflusion apparatus with the stratum corneum facing up. The receptor compartments were filled with isotonic phosphate buffer (pH 6.4). The temperature of the cell system was maintained at 32° C. by circulating water from a constant temperature water bath through the jacket of the lower compartment of each cell assembly. To begin an experiment, the donor compartment was charged with 300 μl of fresh prepared saturated solution of the drug and covered immediately with Parafilm to prevent any significant evaporation of volatile components of the applied medium during the absorption experiment. At predetermined times, samples were taken and were directly assayed by HPLC to determine the drug concentration of each. Care was taken to maintain skin conditions.
The permeability coefficient for a given run was calculated from Fick's law of diffuision: [formula]
dC/dt is the steady-state slope of a plot of the amount of substance which had penetrated the skin against time in terms of jig/h. It was determined by taking the ratio of the total amount permeated in an interval of time to the length of the time interval.
A is the difflusional area, which was 0.8 cm^2.
ΔC is the concentration differential existing across the membrane. This was effectively equal to the saturation concentration in the donor phase (μg/ml) as, through total exchange sampling, a near zero receiver concentration (sink condition) was closely approximated. AC is, in effect, the thermodynamic force driving mass transfer. The maximum driving force is seen at the saturation solubility (excluding supersaturation).
VR is the volume of the receiver compartment (4 ml).
The permeation parameters (flux, J; lag time, TL and permeability coefficient, P) of thalidomide and its N-alkyl analogs from their saturated aqueous solutions (pH 6.0) and an ethanol/water/octanol vehicle are summarized in Table 4. The permeation data were plotted as the cumulative amount of drug penetrated through skin as a function of time. The steady-state flux was determined from the slope of the linear portion of the cumulative amount-time plot. The lag time (TL) was determined by extrapolating the linear portion of the curve to its intersection with the time axis. […] A bar plot of the mean steady-state flux and standard deviations (SD) for thalidomide and its N-alkyl analogs from water can be seen in FIG. 5. […] Typical cumulative amount permeated-time profiles for thalidomide and its N-alkyl analogs from the ethanol/water/octanol (Formulation C) vehicle are shown in FIG. 6.

[4] = 25° C.
TNFα = conditions: PBMCs stimulated in vitro with LPS; previous studies; cited from earlier work

SMILES | Koct ± SD (octanol/water partition coefficient) [1] | Activity of solid phase a2^s, ΔCp = 0 [2] | Activity of solid phase a2^s, ΔCp = ΔSp [2] | Ln X2,ideal, ΔCp = 0 [2] | Ln X2,ideal, ΔCp = ΔSr [2] | Solubility parameter δ2 (Hexane), ΔCp = 0 [2] | Solubility parameter δ2 (Hexane), ΔCp = ΔSr [2] | Maximum steady-state flux [3] [μg/cm^2/h] | Lag time TL = SD [3] [h] | Permeability coefficient P ± SD × 10^−3 [3] | Solubility, Hexane ± SD [4] [µg/mL] | Solubility, Water (pH 6.4) ± SD [4] [μg/ml] | Solubility, Water (pH 6.4) ± SD ([4]; listed as N-methyl thalidomide) [μg/ml] | Solubility, Water (pH 6.4) ± SD ([4]; listed as thalidomide) [μg/ml] | Inhibition of TNFα production (TNFα)
CN1C(=O)CCC(N2C(=O)c3ccccc3C2=O)C1=O (stereo not shown) [N-Methyl Thalidomide, N-methyl thalidomide] | 14.1 ± 1.05 | 1.03 × 10^−1 | 1.54 × 10^−1 | −2.27 | −1.87 | 12.2 (cal/cm^3)^½ | 12.3 (cal/cm^3)^½ | 11.47 | 2.8 ± 0.5 | 1.17 ± 0.22 × 10^−3 (cm/h) | 90 ± 0 (≈ 331 µM) | 275.9 ± 6.39 | 276 | – | –
CCCCCN1C(=O)CCC(N2C(=O)c3ccccc3C2=O)C1=O (stereo not shown) [N-Pentyl Thalidomide, N-pentyl thalidomide] | 129 ± 1.05 | 1.29 × 10^−1 | 1.64 × 10^−1 | −2.05 | −1.81 | 11.2 (cal/cm^3)^½ | 11.2 (cal/cm^3)^½ | – | 3 ± 1.6 | 19.68 ± 6.31 × 10^−3 (cm/h) | 220 ± 10 (≈ 670 µM) | 57.3 ± 1.46 | – | – | –
O=C1CCC(N2C(=O)c3ccccc3C2=O)C(=O)N1 (stereo not shown) [Thalidomide, a-phthalimidoglutarimide, reference compound] | 3.09 ± 1.03 | 1.29 × | 8.07 × | −6.65 | −4.82 | 13.2 (cal/cm^3)^½ | 13.7 (cal/cm^3)^½ | – | 2.2 ± 1.4 | <0.16 ± 0.00^b) × 10^−3 (cm/h) | 0.1 ± 0 (≈ 0.387 µM) | 52.1 ± 1.49 | – | 52 | partially inhibit TNFα production
